# Reference: ChEMBL document CHEMBL1201862, “PubChem BioAssay data set” (2004)
# Calls of active or inactive are those of the source.
# Key:
# [1] = target: T1, High affinity choline transporter 1 (Homo sapiens, UniProt Q9GZV3); assay: human choline transporter blockers, potency – cell-based, 5-point CRC, membrane potential dye, dose response (AID 504840); format: functional
# T1 sequence (Q9GZV3 whole entry): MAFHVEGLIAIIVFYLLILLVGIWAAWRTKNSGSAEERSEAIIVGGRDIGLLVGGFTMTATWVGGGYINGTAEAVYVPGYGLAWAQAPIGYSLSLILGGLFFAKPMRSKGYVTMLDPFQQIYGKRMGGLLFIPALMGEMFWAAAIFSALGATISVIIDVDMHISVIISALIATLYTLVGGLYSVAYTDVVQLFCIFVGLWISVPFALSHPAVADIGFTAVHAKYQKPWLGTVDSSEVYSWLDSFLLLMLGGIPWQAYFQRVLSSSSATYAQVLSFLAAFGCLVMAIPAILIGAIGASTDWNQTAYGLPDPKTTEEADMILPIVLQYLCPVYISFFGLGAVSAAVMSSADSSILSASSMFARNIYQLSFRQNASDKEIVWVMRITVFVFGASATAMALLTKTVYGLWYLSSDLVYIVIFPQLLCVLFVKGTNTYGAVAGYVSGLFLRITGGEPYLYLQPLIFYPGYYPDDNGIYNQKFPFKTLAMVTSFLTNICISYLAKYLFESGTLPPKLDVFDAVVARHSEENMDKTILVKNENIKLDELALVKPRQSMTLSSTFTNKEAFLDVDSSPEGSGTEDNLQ
# [2] = test system: Escherichia coli; assay: microbe, parasite or virus in culture
# [3] = target: T2, Apoptotic protease-activating factor 1 (Homo sapiens, UniProt O14727); format: functional
# T2 sequence (O14727 whole entry): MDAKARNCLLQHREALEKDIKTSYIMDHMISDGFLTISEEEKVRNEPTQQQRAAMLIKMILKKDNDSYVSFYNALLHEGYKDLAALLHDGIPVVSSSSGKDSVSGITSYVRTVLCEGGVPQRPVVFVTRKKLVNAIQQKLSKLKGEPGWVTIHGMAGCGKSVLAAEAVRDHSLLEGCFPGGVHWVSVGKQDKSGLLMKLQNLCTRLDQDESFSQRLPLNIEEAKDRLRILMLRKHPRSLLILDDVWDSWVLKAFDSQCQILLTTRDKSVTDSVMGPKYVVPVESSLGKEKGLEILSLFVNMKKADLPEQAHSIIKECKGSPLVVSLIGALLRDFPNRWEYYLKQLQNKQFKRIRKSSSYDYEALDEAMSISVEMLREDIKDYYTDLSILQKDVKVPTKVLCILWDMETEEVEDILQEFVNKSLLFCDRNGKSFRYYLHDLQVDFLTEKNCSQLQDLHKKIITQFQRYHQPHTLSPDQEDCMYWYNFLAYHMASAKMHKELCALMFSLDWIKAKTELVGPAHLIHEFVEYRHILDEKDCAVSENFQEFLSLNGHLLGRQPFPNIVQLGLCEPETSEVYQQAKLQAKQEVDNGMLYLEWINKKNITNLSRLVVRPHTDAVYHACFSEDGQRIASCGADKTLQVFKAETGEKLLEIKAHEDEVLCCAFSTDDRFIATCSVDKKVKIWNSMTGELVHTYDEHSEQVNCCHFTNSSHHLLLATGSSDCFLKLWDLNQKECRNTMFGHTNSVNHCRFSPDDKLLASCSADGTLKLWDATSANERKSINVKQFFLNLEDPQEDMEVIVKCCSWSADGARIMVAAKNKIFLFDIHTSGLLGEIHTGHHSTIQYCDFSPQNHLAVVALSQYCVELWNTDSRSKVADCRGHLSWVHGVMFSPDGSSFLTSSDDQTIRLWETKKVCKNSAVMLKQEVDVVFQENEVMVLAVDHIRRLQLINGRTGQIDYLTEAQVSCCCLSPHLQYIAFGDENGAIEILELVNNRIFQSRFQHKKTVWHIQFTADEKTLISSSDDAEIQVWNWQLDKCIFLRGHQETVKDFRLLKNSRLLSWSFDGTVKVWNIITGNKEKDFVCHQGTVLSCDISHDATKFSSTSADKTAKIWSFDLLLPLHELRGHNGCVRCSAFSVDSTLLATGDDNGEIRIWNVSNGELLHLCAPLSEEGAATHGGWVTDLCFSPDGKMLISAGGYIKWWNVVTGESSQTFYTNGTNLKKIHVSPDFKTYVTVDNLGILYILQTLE
# [4] = viability loss in THP-1 monocytes – THP-1 cells, cytotoxicity control for Vif-APOBEC3G degradation inhibitor project, dose response (AID 1117359); format: functional; settings: THP-1
# [5] = target: T3, RNA-binding protein pos-1 (Caenorhabditis elegans, UniProt G5EF15); assay: disruptors of C. elegans POS-1 RNA interaction – biochemical, fluorescence polarization, dose response (AID 1964);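 further: purified POS-1 fused to maltose binding protein made in E. coli; potency of compounds blocking POS-1 binding to fluorescent RNA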
# T3 sequence (G5EF15 whole entry): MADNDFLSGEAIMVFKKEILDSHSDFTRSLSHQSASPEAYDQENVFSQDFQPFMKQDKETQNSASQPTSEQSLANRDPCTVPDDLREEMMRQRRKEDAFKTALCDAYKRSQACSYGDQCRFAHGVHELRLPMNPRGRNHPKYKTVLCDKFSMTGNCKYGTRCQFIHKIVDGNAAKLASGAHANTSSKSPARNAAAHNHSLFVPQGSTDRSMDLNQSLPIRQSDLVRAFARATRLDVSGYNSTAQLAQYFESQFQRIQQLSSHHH
# [6] = target: T4, Zinc finger protein mex-5 (Caenorhabditis elegans, UniProt Q9XUB2); assay: potency of MEX-5 RNA-binding blockers – biochemical, C. elegans, fluorescence polarization, dose response (AID 1960)
# T4 sequence (Q9XUB2 whole entry): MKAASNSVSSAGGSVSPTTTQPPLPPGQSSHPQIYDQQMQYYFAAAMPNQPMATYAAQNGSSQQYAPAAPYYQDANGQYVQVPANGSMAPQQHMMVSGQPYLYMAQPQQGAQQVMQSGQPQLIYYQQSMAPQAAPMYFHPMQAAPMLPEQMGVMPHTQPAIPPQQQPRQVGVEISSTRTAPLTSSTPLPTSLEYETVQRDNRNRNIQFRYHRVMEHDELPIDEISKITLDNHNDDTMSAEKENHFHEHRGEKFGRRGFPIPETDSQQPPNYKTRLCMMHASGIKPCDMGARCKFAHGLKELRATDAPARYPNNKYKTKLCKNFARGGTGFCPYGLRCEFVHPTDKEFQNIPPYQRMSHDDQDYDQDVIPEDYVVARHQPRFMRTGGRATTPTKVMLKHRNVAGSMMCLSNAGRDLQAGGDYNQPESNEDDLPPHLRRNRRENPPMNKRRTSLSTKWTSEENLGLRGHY
# [7] = target: T5, Carboxy-terminal domain RNA polymerase II polypeptide A small phosphatase 1 (Homo sapiens, UniProt Q9GZU7); assay: CTDSP1 inhibitors, concentration-response, biochemical, absorbance readout, ultra-high-throughput screen actives (AID 540297); format: functional
# T5 sequence (Q9GZU7 whole entry): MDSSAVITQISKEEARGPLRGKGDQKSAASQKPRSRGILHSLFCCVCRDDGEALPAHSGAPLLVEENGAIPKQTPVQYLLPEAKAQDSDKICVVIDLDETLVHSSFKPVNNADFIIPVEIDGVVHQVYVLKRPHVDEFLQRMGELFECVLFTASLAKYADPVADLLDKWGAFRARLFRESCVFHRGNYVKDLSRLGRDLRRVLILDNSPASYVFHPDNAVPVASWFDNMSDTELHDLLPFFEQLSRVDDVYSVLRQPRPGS
# [8] = target: T6, Rac GTPase-activating protein 1 (Homo sapiens, UniProt Q9H0H5); assay: blockers of MgcRacGAP-driven Rac1 GTP hydrolysis – biochemical, ADP Hunter fluorescence, primary and confirmatory, confirmation (AID 624330); format: functional
# T6 sequence (Q9H0H5 whole entry): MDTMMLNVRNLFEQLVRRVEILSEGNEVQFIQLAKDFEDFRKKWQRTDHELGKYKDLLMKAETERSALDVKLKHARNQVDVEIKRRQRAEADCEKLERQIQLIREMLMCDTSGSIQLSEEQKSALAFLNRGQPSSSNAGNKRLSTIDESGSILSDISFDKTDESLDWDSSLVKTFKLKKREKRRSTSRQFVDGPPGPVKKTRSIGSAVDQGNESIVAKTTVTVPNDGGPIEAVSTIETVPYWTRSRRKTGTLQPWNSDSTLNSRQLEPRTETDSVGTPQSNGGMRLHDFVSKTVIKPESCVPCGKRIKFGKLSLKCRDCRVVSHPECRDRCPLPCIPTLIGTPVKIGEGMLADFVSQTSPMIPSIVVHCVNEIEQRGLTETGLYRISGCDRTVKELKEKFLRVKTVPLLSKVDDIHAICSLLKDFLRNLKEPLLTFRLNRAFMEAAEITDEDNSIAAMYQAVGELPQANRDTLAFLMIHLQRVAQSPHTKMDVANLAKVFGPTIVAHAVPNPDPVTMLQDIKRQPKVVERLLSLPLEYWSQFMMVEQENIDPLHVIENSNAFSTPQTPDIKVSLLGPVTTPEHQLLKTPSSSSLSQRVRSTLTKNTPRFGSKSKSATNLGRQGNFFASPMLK
# [9] = target: T7, Bcl-2-related protein A1 (Mus musculus, UniProt Q07440); format: functional;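 further: confirmatory dose–response counterscreen on Bfl-1, used to check hits from a UBC13 polyubiquitin inhibitor campaign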
# T7 sequence (Q07440 whole entry): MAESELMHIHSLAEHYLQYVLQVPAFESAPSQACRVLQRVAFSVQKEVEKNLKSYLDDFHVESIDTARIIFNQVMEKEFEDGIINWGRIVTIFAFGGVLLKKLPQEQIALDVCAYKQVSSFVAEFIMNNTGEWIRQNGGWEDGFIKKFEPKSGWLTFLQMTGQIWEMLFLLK
# [10] = target: T8, Ubiquitin-conjugating enzyme E2 N (Homo sapiens, UniProt P61088); format: functional
# T8 sequence (P61088 whole entry): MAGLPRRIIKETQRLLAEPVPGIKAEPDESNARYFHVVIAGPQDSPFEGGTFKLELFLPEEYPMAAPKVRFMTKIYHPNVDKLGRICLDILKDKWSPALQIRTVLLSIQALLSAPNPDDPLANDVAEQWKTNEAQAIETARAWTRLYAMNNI
# [11] = target: T8, Ubiquitin-conjugating enzyme E2 N; format: functional; remark: listed apart in the source
# [12] = target: Protein-tyrosine kinase 2-beta (Homo sapiens, UniProt Q14289);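 further: potency of inhibitors of PYK2 kinase phosphorylation of poly-GT substrate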
# Chain of Protein-tyrosine kinase 2-beta (Q14289 whole entry): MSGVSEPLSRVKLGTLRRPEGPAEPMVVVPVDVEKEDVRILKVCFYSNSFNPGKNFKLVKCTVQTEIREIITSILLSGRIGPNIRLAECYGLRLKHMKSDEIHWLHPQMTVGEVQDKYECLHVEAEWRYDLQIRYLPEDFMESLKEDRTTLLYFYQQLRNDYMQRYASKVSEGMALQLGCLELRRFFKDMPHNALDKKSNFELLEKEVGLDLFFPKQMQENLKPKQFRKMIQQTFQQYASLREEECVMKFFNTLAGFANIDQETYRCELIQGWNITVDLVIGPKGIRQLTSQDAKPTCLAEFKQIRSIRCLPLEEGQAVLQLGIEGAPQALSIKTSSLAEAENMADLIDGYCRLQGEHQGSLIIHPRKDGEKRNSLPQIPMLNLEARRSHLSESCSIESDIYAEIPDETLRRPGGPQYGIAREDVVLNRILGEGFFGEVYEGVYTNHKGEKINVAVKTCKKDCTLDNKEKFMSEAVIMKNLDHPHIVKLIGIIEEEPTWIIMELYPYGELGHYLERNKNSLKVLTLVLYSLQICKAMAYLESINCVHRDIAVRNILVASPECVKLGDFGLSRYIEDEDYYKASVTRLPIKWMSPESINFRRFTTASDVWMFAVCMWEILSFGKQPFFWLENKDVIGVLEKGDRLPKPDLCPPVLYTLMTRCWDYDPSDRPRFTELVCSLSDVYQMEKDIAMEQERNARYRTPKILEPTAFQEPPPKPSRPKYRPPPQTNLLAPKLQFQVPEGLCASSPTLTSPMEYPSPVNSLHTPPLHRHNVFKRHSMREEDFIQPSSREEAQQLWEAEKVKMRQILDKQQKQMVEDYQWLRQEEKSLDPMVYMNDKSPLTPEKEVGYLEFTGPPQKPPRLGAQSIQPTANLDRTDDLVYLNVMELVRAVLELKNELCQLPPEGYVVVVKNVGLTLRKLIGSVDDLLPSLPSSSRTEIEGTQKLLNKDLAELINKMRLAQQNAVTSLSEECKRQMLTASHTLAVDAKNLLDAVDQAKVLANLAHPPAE
# [13] = target: Estrogen receptor beta (Homo sapiens, UniProt Q92731); assay: blockers of SRC-3 recruitment to ERβ – biochemical, ELISA, streptavidin-HRP readout, orthogonal assay, confirmation (AID 1060)
# Chain of Estrogen receptor beta (Q92731 whole entry): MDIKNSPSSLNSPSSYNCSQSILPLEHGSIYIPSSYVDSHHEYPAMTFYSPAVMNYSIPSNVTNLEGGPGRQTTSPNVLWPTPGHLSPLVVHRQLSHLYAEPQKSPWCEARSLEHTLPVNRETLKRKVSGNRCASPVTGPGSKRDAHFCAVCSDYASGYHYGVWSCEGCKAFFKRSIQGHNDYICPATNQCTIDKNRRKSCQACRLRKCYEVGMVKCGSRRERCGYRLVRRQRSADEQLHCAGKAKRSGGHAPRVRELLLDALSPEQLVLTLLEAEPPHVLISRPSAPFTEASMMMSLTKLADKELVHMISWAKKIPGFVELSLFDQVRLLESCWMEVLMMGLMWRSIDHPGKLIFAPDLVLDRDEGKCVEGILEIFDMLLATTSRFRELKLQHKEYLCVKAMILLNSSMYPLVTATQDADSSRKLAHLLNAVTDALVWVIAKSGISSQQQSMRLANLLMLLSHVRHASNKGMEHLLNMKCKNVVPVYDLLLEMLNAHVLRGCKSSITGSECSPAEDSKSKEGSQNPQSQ
# [14] = target: Voltage-gated N-type calcium channel alpha-1B subunit/Amyloid beta A4 precursor protein-binding family A member 1 (Homo sapiens, UniProt Q00975+Q02410); format: protein assay
# Chain of Voltage-gated N-type calcium channel alpha-1B subunit/Amyloid beta A4 precursor protein-binding family A member 1 (Q00975 whole entry): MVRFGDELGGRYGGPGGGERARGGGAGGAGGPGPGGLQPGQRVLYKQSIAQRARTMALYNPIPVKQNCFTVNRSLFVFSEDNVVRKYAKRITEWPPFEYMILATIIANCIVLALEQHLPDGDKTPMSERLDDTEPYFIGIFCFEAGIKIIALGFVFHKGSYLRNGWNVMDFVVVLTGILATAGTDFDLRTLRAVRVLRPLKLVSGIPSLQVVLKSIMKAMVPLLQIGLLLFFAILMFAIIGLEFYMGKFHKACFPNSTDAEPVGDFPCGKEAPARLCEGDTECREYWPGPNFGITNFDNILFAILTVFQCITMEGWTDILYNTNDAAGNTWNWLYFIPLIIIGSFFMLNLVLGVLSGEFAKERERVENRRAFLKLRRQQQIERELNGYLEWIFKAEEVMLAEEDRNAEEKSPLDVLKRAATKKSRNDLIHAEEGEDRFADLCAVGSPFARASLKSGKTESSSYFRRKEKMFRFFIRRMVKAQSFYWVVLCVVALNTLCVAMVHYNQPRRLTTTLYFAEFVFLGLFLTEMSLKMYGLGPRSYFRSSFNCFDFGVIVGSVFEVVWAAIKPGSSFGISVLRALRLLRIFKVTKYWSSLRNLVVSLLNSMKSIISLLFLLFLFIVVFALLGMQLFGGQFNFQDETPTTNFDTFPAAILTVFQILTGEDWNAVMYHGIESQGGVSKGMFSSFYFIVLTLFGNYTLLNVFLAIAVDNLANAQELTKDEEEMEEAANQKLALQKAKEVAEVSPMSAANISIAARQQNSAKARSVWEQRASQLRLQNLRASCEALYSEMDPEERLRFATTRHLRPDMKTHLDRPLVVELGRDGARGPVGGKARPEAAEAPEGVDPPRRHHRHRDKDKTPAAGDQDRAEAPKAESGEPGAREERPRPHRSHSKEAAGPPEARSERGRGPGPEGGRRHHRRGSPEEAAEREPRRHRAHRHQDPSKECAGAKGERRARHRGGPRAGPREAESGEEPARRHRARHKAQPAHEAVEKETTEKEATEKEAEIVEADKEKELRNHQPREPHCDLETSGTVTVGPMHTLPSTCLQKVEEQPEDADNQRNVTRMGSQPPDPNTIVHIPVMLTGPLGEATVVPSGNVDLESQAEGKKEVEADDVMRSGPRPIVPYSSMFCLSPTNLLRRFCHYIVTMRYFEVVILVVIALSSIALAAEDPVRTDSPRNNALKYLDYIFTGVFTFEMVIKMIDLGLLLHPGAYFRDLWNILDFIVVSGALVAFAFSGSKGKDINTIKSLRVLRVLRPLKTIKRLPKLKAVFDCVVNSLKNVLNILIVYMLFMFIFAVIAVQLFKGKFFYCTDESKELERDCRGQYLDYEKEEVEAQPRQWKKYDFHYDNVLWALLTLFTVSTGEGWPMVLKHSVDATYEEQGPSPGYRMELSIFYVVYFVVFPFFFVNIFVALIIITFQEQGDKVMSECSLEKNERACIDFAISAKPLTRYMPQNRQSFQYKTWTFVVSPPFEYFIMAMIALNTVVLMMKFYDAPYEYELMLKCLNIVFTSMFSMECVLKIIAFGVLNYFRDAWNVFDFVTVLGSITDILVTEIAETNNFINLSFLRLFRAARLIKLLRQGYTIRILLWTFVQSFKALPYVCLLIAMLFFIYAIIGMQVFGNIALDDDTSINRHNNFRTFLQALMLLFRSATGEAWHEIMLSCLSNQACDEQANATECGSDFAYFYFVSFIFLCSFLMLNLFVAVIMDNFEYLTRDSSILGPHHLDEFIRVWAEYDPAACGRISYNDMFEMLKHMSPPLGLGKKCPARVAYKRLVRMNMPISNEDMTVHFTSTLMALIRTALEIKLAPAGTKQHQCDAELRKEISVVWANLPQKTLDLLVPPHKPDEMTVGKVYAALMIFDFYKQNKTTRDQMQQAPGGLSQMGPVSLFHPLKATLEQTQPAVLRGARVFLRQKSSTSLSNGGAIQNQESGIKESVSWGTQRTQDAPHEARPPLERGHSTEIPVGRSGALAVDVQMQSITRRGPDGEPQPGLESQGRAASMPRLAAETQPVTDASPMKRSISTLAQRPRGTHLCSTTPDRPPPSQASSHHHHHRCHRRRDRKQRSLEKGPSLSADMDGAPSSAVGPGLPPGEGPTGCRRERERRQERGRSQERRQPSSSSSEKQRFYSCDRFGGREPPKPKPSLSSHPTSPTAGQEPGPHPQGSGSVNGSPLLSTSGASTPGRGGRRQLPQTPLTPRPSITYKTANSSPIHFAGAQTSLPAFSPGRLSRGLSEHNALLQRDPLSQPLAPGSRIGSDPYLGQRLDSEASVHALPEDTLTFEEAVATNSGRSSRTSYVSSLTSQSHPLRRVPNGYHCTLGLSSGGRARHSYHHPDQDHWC
# Chain of Voltage-gated N-type calcium channel alpha-1B subunit/Amyloid beta A4 precursor protein-binding family A member 1 (Q02410 whole entry): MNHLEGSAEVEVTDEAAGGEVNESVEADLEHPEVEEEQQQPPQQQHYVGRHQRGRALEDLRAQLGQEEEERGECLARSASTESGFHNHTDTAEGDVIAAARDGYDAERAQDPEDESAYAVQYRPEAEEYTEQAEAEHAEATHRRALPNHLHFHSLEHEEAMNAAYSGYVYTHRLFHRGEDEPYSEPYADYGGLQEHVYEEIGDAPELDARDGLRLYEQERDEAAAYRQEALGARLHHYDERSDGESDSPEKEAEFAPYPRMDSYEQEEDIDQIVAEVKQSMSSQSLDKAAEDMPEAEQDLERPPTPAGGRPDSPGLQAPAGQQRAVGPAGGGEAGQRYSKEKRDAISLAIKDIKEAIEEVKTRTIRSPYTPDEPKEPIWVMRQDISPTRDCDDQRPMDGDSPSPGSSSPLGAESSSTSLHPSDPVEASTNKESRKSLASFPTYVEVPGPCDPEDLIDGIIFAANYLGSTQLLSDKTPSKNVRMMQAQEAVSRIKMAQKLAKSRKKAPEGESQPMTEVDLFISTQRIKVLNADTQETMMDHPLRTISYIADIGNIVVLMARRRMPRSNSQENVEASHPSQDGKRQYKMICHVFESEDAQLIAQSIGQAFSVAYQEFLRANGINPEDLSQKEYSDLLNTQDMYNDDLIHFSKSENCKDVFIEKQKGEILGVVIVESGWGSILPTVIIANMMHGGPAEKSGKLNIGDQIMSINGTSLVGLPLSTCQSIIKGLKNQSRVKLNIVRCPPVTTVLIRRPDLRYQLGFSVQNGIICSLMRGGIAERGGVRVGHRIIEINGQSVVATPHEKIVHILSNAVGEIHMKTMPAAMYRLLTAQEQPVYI
# [15] = A549 cell cytotoxicity, dose response, cytotoxicity control, plate reader, cherry-pick, antagonist series (AID 743412); format: functional, cell-based
# [16] = blockade of melanocortin 4 receptor signaling – cell-based, plate reader, cherry pick, counter-screen for LGR2 antagonist project, dose response (AID 743444); format: functional;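 further: transfected HEK 293 cells stimulated with alpha-MSH peptide; potency of inhibitors of the alpha-MSH evoked signal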
structure (smiles),measurement,setting,value
O=C(N/N=C/c1ccsc1)c1c[nH]c2ccccc12,IC50,[1],3.8 µM (active)
COc1ccc(CCN=C(N)NS(=O)(=O)c2cccs2)cc1,AC50,[2],112 µM (active)
O=C(C1CC(=O)N(C2CCCC2)C1)N1CCN(c2ccc(F)cc2)CC1 (stereo unspecified),AC50,[2],31.8 µM (active)
CCCN(CC(=O)Nc1ccccc1OC)C(=O)CSc1ccc(Br)cc1C,IC50,[3],48.4 µM (active)
same,CC50,[4],> 40 µM (active)
CC1CCN(S(=O)(=O)c2ccc3c(c2)N(CC(=O)NCCCN2CCCCC2C)C(=O)CS3)CC1 (stereo unspecified),IC50,[1],13 µM (active)
Cc1ccc(NC(=O)COC(=O)CCC(=O)c2cccs2)c(C)c1,AC50,[2],> 150 µM (inactive)
Cn1cccc1/C=C1\C(=O)NC(=O)N(Cc2ccco2)C1=O,EC50,[5],> 300 µM (not active)
same,EC50,[6],57.7 µM (active)
same,IC50,[7],4.88 µM (active)
same,IC50,[8],116 µM (active)
same,CC50,[4],> 40 µM (active)
Cc1c(NC(=O)CCCCCN2C(=O)c3ccccc3C2=O)c(=O)n(-c2ccccc2)n1C,IC50,[9],> 20 µM (inactive)
same,IC50,[10],1.23 µM (active)
same,IC50,[11],0.709 µM (active)
O=C(OCC(=O)N1CCN(C(=O)c2ccco2)CC1)c1cc(-c2ccc(Cl)c(Cl)c2Cl)nc2ccccc12,IC50,[12],5.94 µM (active)
N#Cc1c(NC(=O)CN2CCCCC2)sc2c1CCC2,IC50,[13],0.0561 µM (not active)
Cc1ccc(-c2nnc(OCC3CCCO3)c3ccccc23)cc1 (stereo unspecified),IC50,[1],14.5 µM (active)
CCOc1ccc(NC(=O)Cn2cncc2-c2ccc([N+](=O)[O-])cc2)cc1,IC50,[14],5.93 µM (active)
Clc1ccc(CSCCc2ccncc2)cc1,CC50,[4],> 40 µM (active)
COc1ccc(S(=O)(=O)Nc2ccc3c(c2)C(=O)N([C@@H](C)CO)C[C@@H](C)[C@H](CN(C)C(=O)Nc2cccc4ccccc24)OCCCC[C@H](C)O3)cc1,AC50,[15],> 52 µM (inactive)
same,AC50,[16],2.05 µM (active)
C#CCOCCOCCOCCNc1nc(N2CCN(C(=O)[C@H](CCCCN)n3cc(CN)nn3)CC2)nc(N2CCN(C(=O)[C@H](CCCN=C(N)N)n3cc(C(N)[C@H](C)CC)nn3)CC2)n1 (stereo partly specified),IC50,[9],> 20 µM (inactive)
same,IC50,[10],12 µM (active)
same,IC50,[11],7.94 µM (active)
CC(C)c1ccc(NC(=O)C[n+]2ccn(C3=C([O-])c4ccccc4C3=O)c2)cc1,IC50,[9],> 20 µM (inactive)
same,IC50,[10],11.8 µM (active)
same,IC50,[11],17.8 µM (active)
COc1ccccc1NC(=O)c1c(/N=C/c2ccccc2O)cnn1C,IC50,[9],> 20 µM (inactive)
same,IC50,[10],10.5 µM (active)
same,IC50,[11],10.4 µM (active)
